The values that follow are results of earlier work, collected in patent US20110030103A1, “LIPOPEPTIDES AND LIPOPEPTIDE SYNTHETASES” (priority 2007, published 2011).

*1 amine or outer side, *2 acyl side, *3 side chain or, on linkers, in order; H or OH if unused. Where a SMILES comes first, the peptide text is derived from it. Bridges are numbered along the chain shown (N, C = ends). [ ]: non-standard residue; d: D form. X1 = CC(C)CCCCCCCCC[C@H](CC(=O)[*:1])O[*:2]

This data set has as its system bacteria, including both Gram-negative and Gram-positive bacteria. As to conditions: minimal antibacterial effects; background statement.

Regarding `CC(C)CCCCCCCCC[C@@H]1CC(=O)N[C@@H](CCC(=O)O)C(=O)N[C@@H](CC(C)C)C(=O)N[C@H](CC(C)C)C(=O)N[C@@H](C(C)C)C(=O)N[C@@H](CC(=O)O)C(=O)N[C@H](CC(C)C)C(=O)N[C@@H](CC(C)C)C(=O)O1` [surfactin] (EL[dL]VD[dL]L; linker N-C via X1), the “minimum inhibitory concentration (MIC)” value was 12 to 50 µg/mL.
